Results on 30 molecules are retold here after ChEMBL document CHEMBL1955751, “Structure-activity relationship of the 7-hydroxy benzimidazole analogs as glycogen synthase kinase 3β inhibitor” (Bioorg Med Chem Lett, 2012).

For series [1], the target named is T1, Glycogen synthase kinase-3 beta (Homo sapiens, UniProt P49841). The series is described as follows: Inhibition of GSK3-beta assessed as residual activity at 5 uM.
Target sequence in this assay (P49841 whole entry, looked up): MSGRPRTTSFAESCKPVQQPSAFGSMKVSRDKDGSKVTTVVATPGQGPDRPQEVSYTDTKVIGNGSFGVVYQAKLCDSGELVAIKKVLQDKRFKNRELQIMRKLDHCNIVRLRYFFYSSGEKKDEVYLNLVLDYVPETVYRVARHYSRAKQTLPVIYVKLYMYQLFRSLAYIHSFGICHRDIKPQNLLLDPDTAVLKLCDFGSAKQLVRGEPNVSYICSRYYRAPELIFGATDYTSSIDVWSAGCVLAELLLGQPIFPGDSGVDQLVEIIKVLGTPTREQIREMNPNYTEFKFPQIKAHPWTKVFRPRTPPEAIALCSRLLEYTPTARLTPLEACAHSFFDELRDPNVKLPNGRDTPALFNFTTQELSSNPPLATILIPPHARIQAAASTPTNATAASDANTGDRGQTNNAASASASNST
Series [2] in a line: Cytotoxicity against human RD cells by MTS assay. Format: cell-based. The conditions noted are these: read-out: CCIC50.
Series [3] concerns the target T1, Glycogen synthase kinase-3 beta. The series is described as follows: Inhibition of GSK3-beta in human RD cells assessed as glycogen synthase activation measured after 24 hrs under serum starving condition. Format: cell-based.
Target sequence in this assay (P49841 whole entry): as the sequence (P49841 whole entry, looked up) above
Series [4] shares this target. Description: Inhibition of GSK3-beta in human RD cells. Format: cell-based.
Target sequence in this assay (P49841 whole entry): as the sequence (P49841 whole entry, looked up) above
For series [5] the target is unchanged. The series is described as follows: Inhibition of GSK3-beta.
Target sequence in this assay (P49841 whole entry): as the sequence (P49841 whole entry, looked up) above
The nature of series [6]: Ratio of CCIC50 for human RD cells to EC50 for GSK3-beta in human RD cells.
The nature of series [7]: Inhibition of AKT assessed as residual activity at 5 uM.
Series [8] deals with Cyclin-dependent kinase 1 (Homo sapiens) (UniProt P06493). Description: Inhibition of CDK1 assessed as residual activity at 5 uM.
Series [9] deals with T2, Inhibitor of nuclear factor kappa-B kinase subunit beta (Homo sapiens) (UniProt O14920).
T2 sequence (whole entry): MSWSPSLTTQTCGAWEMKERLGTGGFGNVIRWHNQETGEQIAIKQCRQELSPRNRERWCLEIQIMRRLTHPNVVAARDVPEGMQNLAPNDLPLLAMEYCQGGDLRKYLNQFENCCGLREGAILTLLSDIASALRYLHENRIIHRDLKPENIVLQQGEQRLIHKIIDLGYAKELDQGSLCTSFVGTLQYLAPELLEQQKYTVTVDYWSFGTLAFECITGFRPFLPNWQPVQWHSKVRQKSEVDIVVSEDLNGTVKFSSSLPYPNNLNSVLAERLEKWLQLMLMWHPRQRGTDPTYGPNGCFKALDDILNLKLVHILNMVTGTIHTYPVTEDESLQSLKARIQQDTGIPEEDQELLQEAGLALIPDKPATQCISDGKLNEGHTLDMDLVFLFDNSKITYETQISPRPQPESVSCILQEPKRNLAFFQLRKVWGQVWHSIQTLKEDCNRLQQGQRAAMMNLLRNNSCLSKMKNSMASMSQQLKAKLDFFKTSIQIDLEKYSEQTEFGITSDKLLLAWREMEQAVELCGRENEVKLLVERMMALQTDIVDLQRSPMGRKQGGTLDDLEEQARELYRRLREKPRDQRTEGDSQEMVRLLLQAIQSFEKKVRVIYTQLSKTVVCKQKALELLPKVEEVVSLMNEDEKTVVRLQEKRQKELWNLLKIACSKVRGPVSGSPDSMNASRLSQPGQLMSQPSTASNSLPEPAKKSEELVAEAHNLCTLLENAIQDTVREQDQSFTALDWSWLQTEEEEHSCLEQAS
The series is described as follows: Inhibition of IKK-beta assessed as residual activity at 5 uM.

Series [10] addresses Vascular endothelial growth factor receptor 2 (Homo sapiens) (UniProt P35968). The series is described as follows: Inhibition of KDR assessed as residual activity at 5 uM.
Series [11] addresses Mitogen-activated protein kinase 1 (Homo sapiens) (UniProt P28482). The series is described as follows: Inhibition of ERK2 assessed as residual activity at 5 uM.
Series [12] deals with Cyclin-dependent kinase 4 (Homo sapiens) (UniProt P11802). Description: Inhibition of CDK4 assessed as residual activity at 5 uM.
In series [13] the target is Mitogen-activated protein kinase 3 (Homo sapiens) (UniProt P27361). Description: Inhibition of ERK1 assessed as residual activity at 5 uM.
Chain of Mitogen-activated protein kinase 3 (Homo sapiens) (P27361 whole entry): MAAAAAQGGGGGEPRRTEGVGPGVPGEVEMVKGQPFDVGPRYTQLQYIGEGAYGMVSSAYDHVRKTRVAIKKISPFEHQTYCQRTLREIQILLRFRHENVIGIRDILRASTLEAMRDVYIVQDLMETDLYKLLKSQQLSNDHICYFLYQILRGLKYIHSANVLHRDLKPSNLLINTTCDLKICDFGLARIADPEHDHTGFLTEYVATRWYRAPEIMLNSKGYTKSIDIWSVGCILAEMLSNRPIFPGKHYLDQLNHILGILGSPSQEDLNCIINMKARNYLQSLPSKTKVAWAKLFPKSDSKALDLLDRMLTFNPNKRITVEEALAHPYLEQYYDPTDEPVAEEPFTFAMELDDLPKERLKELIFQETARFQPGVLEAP

Chain of Cyclin-dependent kinase 4 (Homo sapiens) (P11802 whole entry): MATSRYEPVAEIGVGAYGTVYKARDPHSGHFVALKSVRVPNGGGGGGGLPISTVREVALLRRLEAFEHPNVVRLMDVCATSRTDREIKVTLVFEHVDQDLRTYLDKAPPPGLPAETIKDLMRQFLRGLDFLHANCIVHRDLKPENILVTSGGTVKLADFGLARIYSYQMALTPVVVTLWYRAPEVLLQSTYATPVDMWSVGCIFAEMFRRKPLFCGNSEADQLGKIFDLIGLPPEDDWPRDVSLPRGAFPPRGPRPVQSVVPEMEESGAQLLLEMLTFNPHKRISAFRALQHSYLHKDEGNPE
Chain of Vascular endothelial growth factor receptor 2 (Homo sapiens) (P35968 whole entry): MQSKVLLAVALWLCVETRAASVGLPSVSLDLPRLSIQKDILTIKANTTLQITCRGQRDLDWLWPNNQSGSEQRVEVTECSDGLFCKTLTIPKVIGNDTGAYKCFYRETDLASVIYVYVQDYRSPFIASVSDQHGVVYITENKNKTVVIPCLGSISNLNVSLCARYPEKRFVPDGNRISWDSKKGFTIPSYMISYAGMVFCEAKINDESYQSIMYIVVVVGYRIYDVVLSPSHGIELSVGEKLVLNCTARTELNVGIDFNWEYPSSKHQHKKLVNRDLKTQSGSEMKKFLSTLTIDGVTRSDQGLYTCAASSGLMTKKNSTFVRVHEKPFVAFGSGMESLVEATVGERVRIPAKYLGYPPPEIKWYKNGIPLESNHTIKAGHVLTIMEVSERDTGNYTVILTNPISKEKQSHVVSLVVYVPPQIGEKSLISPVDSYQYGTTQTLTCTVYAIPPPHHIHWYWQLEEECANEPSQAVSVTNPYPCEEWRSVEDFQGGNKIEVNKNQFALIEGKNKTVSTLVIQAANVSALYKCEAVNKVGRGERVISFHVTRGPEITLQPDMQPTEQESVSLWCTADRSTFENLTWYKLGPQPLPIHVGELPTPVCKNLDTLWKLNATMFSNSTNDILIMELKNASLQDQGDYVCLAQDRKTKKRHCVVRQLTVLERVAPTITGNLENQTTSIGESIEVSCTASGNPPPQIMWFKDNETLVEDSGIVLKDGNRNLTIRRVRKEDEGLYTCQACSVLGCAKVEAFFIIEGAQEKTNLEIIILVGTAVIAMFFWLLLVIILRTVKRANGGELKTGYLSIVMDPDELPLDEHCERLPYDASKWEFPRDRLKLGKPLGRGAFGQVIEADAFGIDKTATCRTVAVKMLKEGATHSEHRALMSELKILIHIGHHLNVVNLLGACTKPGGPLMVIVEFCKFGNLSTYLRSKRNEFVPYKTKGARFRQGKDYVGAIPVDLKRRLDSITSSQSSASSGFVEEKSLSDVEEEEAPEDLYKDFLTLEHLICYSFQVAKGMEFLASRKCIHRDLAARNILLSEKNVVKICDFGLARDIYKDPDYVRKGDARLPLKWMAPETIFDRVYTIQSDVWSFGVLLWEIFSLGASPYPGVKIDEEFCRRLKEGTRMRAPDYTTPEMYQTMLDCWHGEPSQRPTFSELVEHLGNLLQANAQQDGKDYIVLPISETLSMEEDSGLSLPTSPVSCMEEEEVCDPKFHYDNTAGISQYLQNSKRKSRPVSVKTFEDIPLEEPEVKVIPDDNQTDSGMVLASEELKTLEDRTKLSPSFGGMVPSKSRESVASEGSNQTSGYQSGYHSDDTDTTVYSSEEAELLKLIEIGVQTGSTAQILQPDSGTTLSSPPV
Chain of Mitogen-activated protein kinase 1 (Homo sapiens) (P28482 whole entry): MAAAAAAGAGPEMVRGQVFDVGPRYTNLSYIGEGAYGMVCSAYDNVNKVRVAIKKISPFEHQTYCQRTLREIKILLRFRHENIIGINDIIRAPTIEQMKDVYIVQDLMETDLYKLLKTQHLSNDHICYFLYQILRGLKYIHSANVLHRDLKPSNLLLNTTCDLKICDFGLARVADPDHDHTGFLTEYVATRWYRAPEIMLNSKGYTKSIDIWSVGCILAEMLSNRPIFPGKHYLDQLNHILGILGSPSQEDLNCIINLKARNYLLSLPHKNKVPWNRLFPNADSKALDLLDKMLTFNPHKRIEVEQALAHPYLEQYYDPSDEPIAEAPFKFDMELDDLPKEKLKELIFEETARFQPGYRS
Chain of Cyclin-dependent kinase 1 (Homo sapiens) (P06493 whole entry, looked up): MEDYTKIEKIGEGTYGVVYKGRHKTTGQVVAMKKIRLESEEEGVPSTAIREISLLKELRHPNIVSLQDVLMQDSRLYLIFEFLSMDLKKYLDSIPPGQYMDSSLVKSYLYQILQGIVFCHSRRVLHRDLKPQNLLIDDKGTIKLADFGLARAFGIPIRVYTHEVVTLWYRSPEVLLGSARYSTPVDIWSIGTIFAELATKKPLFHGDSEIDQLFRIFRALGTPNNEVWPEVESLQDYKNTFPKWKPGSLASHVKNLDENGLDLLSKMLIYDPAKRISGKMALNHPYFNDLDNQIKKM

Take `O=C(NCc1cccc(O)c1)c1ccc(O)c2[nH]c(Cc3ccccc3)nc12`: the Activity in [1] was determined as 53%.
For `O=C(NCCCn1cnc(Cl)c1Cl)c1ccc(O)c2nc(-c3ccc(Cl)cc3Cl)[nH]c12`, in series [2], the CC50 came out at 60000 nM. For the same molecule, the EC50 in series [3] is 170 nM; in series [4], 110 nM. Half-maximal inhibition in series [5] (IC50) required 6 nM.
Turning to `CS(=O)(=O)Nc1ccc(CCNC(=O)c2ccc(O)c3[nH]c(Cc4ccccc4)nc23)cc1`, the Activity in [1] amounted to 18%. The same molecule gave an EC50 in series [4] of 3900 nM. The molecule further returned a 50% inhibitory concentration (IC50) in series [5] of 1600 nM.
Consider `NC(=O)c1ccc(O)c2[nH]c(Cc3ccccc3)nc12`, for which, in [1], the Activity was 75%.
`O=C(NCCc1ccc([N+](=O)[O-])cc1)c1ccc(O)c2nc(Cc3ccccc3)[nH]c12`: in series [5], 2000 nM corresponded to half-maximal inhibition (IC50).
In series [4], `CS(=O)(=O)Nc1ccc(CCNC(=O)c2ccc(O)c3[nH]c(C4CCCC4)nc23)cc1` yielded a half-maximal effective concentration (EC50) of 2700 nM. The IC50 in [5] came to 44 nM.
`O=C(NCCCn1ccnc1)c1ccc(O)c2nc(-c3ccc(F)c(Cl)c3)[nH]c12`: in series [2], the CC50 is more than 100000 nM. For the same molecule, the results for the concentration for a half-maximal effect (EC50) in [3] and in series [4] were 100 nM and 490 nM, respectively.
`Cc1cn(CCCNC(=O)c2ccc(O)c3[nH]c(-c4cccs4)nc23)cn1`: the Ratio in [6] is reported as more than 322. Also, the CC50 in series [2] was more than 100000 nM. The EC50 in [4] was 310 nM. Moreover, the IC50 in series [5] was 50 nM.
Turning to `O=C(NCCc1ccc([N+](=O)[O-])cc1)c1ccc(O)c2[nH]c(Cc3ccccc3)nc12`, the Activity in series [1] came to 32%.
Turning to `O=C(O)COc1cccc(CCCNC(=O)c2ccc(O)c3[nH]c(-c4ccc(Cl)cc4)nc23)c1`, the Activity in series [7] came to 100%; in [8] it was 90.9%; in series [9] it was 87.3%; in series [10] it was 54.5%; in series [1], 0.3%; in series [11] it was 104%. Besides, the Activity in [12] was determined as 58.6%; in series [13], 80%. Further, the Ratio in series [6] came out at 68.
For `Cc1nc2c(O)ccc(C(=O)NCCc3ccc(NS(C)(=O)=O)cc3)c2[nH]1`, the EC50 in series [4] was 21000 nM.
Take `O=C(NCCCn1cnc(Cl)c1Cl)c1ccc(O)c2[nH]c(-c3ccc(Cl)cc3Cl)nc12`: the Ratio in series [6] was 545. The Activity in series [9] was found to be 80.7%; in series [10], 109%; in series [1], 0%; in series [11], 102%; in series [12] it was 74.9%; in series [13], 97.9%.
Regarding `Cc1ccc(S(=O)(=O)Nc2ccc(CCNC(=O)c3ccc(O)c4[nH]c(Cc5ccccc5)nc34)cc2)cc1`, the Activity in series [1] worked out at 36%. This molecule had a half-maximal inhibitory concentration (IC50) in series [5] of 2800 nM.
Regarding `CS(=O)(=O)Nc1ccc(CCNC(=O)c2ccc(O)c3[nH]c(-c4ccc(F)cc4)nc23)cc1`, the EC50 in series [4] is 400 nM.
With `Cc1ccc(S(=O)(=O)Nc2ccc(CCNC(=O)c3ccc(O)c4[nH]c(-c5ccc(F)cc5)nc34)cc2)cc1`, the Ratio in series [6] was found to be 184. The CC50 in series [2] was 17500 nM. Moreover, the concentration for a half-maximal effect (EC50) in series [4] came to 95 nM.
`CCCCNC(=O)c1ccc(O)c2[nH]c(Cc3ccccc3)nc12`: in series [1], the Activity was determined as 63%.
As for `CS(=O)(=O)Nc1ccc(CCNC(=O)c2ccc(O)c3[nH]c(-c4ccc(Cl)cc4)nc23)cc1`, the Ratio in [6] amounted to 233. For the same molecule, in series [2], the CC50 was found to be 28000 nM. The molecule further registered an EC50 in series [4] of 120 nM. For the same molecule, in [5], half-maximal inhibition (IC50) required 7 nM.
With `CS(=O)(=O)Nc1ccc(CCNC(=O)c2ccc(O)c3[nH]c(-c4ccc(F)cc4Cl)nc23)cc1`, the EC50 in series [4] came to 230 nM. Besides, in [5], half-maximal inhibition (IC50) was put at 20 nM.
As for `O=C(NCCCn1cnc(Cl)c1Cl)c1ccc(O)c2[nH]c(-c3cccs3)nc12`, the Ratio in series [6] is more than 2941. Further, in series [2], the CC50 was more than 100000 nM. In addition, in series [4], it took 34 nM to reach a half-maximal effect (EC50). The molecule also returned an IC50 in [5] of 8 nM.
`CCN1CCN(C(=O)c2ccc(CCNC(=O)c3ccc(O)c4nc(-c5cccs5)[nH]c34)cc2)CC1`: in series [2], the CC50 is 51000 nM. Besides, the 50% effective concentration (EC50) in [4] came out at 400 nM. This molecule gave an IC50 in series [5] of 46 nM.
Regarding `CS(=O)(=O)Nc1ccc(CCNC(=O)c2ccc(O)c3nc(-c4ccc(F)cc4F)[nH]c23)cc1`, the EC50 in series [3] turned out to be 13 nM; in series [4] it was 580 nM.
In series [4], `CS(=O)(=O)Nc1ccc(CCNC(=O)c2ccc(O)c3nc(C4CC4)[nH]c23)cc1` showed an EC50 of 4800 nM. The half-maximal inhibitory concentration (IC50) in [5] was 140 nM.
`O=C(NCCCn1cnc(Cl)c1Cl)c1ccc(O)c2[nH]c(-c3ccco3)nc12`: the Activity in series [7] was 92.3%; in series [8] it was 65.2%; in series [9], 74.7%; in series [10] it was 83.6%; in series [1], -1.7%; in series [11], 70.6%. In addition, the Activity in [12] turned out to be 38.6%; in [13], 53.9%. Moreover, the Ratio in series [6] is reported as 1400.
Molecule `CS(=O)(=O)Nc1ccc(CCNC(=O)c2ccc(O)c3nc(-c4ccncc4)[nH]c23)cc1` registered an EC50 in series [4] of 25000 nM. This molecule also showed a concentration for half-maximal inhibition (IC50) in [5] of 110 nM.
For the molecule `O=C(O)COc1cccc(CCCNC(=O)c2ccc(O)c3nc(-c4ccc(Cl)cc4)[nH]c23)c1`, in [2], the CC50 amounted to 17000 nM. Moreover, the concentration giving a half-maximal response (EC50) in [3] worked out at 80 nM; in series [4] it was 250 nM. In series [5], the 50% inhibitory concentration (IC50) turned out to be 31 nM.
Taken in the same sequence, the figures for `O=C(NCCCn1cnc(Cl)c1Cl)c1ccc(O)c2nc(-c3ccco3)[nH]c12` were 70000 nM, 40 nM, 50 nM and 10 nM.
In the case of `O=C(NCCCn1ccnc1)c1ccc(O)c2[nH]c(-c3ccc(F)c(Cl)c3)nc12`, the Activity in [7] is 83.9%; in [8], 71.3%; in series [9], 80%; in [10], 85.3%; in series [1], 1%; in [11], 76%. Moreover, the Activity came out at 52.4% in series [12] and 66.5% in series [13]. In addition, in series [6], the Ratio is more than 204.
For `O=C(NCCCn1ccnc1)c1ccc(O)c2[nH]c(-c3ccc(Cl)cc3Cl)nc12`, in series [6], the Ratio is 187. In addition, the CC50 in [2] stood at 45000 nM. The EC50 in [4] stood at 240 nM. The molecule further gave an IC50 in series [5] of 15 nM.
As to `CS(=O)(=O)Nc1ccc(CCNC(=O)c2ccc(O)c3[nH]c(-c4ccc(F)cc4F)nc23)cc1`, the Activity in series [9] is 93.1%; in [10], 114%; in [1], -0.58%; in [11] it was 91.4%; in series [12], 49.2%; in series [13], 73.4%.
As to `CCN1CCN(C(=O)c2ccc(CCNC(=O)c3ccc(O)c4[nH]c(-c5cccs5)nc34)cc2)CC1`, the Activity in [7] came to 96%; in series [8], 70.4%; in [9], 72.7%; in series [10] it was 60.8%; in [1], 0.9%; in series [11] it was 80.7%. Further, the Activity worked out at 68.2% in series [12] and 80.9% in series [13]. Moreover, the Ratio in series [6] is recorded as 127.
